Source: patent US12559455B2, “Compound as a UBR box domain ligand” (AUTOTAC INC., priority 2020, dated 2026)
Peptide text beside a SMILES is read from it. * marks the point of attachment. Cbz = O=C(OCc1ccccc1)*

Key:
UBR1 [1] = target: T1, UBR1 (Rattus norvegicus, UniProt A0A8I5ZK69); assay: Inhibition of muscle cell actin degradation by immunoblotting; assay type: cell-based; details: L6 cell line, compound 5 uM, 24 hours
T1 construct: endogenous in cells; host or cells: L6 rat muscle-derived cells
T1 sequence (A0A8I5ZK69 1-1749): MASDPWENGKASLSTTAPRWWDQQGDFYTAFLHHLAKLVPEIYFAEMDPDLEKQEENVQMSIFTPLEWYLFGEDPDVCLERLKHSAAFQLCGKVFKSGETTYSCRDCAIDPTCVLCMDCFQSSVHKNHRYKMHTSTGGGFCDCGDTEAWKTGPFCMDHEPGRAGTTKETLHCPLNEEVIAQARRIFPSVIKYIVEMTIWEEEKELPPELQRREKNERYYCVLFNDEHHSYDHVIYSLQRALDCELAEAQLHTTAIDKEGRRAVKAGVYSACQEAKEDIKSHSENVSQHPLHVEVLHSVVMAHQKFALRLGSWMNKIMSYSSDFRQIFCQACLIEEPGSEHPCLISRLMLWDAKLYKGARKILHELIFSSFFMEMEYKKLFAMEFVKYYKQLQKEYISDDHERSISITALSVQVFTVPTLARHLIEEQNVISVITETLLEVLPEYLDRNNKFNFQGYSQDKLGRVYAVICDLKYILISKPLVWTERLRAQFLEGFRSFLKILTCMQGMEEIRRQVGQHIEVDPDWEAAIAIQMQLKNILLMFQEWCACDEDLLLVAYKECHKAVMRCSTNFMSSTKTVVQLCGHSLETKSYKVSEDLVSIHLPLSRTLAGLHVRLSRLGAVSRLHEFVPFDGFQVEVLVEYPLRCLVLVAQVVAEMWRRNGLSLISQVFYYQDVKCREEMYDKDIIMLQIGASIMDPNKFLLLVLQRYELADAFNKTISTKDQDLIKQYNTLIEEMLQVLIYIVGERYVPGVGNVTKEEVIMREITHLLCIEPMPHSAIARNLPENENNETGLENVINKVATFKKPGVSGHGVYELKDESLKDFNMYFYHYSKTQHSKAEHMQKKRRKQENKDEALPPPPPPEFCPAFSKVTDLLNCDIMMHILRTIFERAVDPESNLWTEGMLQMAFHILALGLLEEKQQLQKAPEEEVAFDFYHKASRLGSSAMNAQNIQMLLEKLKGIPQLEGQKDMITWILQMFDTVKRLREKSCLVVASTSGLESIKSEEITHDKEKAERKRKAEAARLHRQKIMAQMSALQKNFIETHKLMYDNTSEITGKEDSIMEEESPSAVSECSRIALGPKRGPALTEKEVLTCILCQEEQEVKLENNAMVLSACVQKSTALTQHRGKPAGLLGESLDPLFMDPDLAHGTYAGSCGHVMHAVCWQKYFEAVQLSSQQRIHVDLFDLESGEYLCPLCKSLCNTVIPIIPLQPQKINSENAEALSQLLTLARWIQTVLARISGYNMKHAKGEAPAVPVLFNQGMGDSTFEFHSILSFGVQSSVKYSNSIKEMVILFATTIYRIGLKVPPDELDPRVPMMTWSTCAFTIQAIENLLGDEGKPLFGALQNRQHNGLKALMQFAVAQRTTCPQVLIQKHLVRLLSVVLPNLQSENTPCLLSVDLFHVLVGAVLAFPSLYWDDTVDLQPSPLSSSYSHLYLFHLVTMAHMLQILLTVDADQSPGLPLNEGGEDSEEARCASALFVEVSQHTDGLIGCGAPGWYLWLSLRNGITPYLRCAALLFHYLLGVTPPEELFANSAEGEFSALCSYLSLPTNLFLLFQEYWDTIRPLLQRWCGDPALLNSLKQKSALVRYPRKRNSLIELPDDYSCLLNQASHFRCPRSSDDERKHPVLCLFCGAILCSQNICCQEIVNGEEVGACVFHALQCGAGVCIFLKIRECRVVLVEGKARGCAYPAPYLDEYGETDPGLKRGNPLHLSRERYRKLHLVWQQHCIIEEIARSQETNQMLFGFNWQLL
Procedure: To evaluate the actin degradation of compounds in muscle cells, a L6 cell line, which is a rat muscle-derived cell, was cultured using a DMEM medium containing 10% FBS and 1% streptomycin/penicillin in an incubator in which 5% carbon dioxide was maintained. In order to measure the UBR1 binding strength according to the treatment with a representative compound selected from the present compounds, cells were aliquoted into a 12-well plate. The cells were additionally cultured for 24 hours so as to be completely attached to the surface of the plate. […] To extract proteins from the collected cells, 50 uL of a lysis buffer (20 mM Tris, pH 7.4, 150 mM NaCl, 1% Triton-X-100, 2 mM NaF, 2 mM EDTA, 2 mM b-glycerophosphate, 5 mM sodium orthovanadate, 1 mM PMSF, leupeptin, aprotenin) was injected into each sample, and the cells were lysed. A sample buffer was added to each sample based on the measured total protein concentration, and the mixture was reacted at 100° C. for 5 minutes. After 5 uL was taken from the completely reacted sample and aliquoted into each well of an acrylamide gel, an immunoblotting method was performed, and the experimental results were illustrated in [FIG. 4], [FIG. 5], [FIG. 6], [FIG. 7], [FIG. 8], and [FIG. 9]. For the immunoblotting method, a representative experiment was schematized from three or more independent experiments.

UBR1 [2] = target: T1, UBR1; assay: Inhibition of intracellular RGS4 degradation by transfection (immunoblotting); assay type: cell-based; details: L6 cell line transfected with RGS4 plasmid, compound 5 uM, 24 hours
Procedure: A L6 cell line, which is a rat muscle-derived cell, was cultured using a DMEM medium containing 10% FBS and 1% streptomycin/penicillin in an incubator in which 5% carbon dioxide was maintained. In order to measure the UBR1 binding strength according to the treatment with a representative compound selected from the present compounds, cells were aliquoted into a 6-well plate. The cells were additionally cultured for 24 hours so as to be completely attached to the surface of the plate. Opti-MEM, Lipofectamine, and an RGS4plasmid was reacted for transfection. After the reaction was completed, the cells are treated such that DNA was expressed intracellularly. […] To extract proteins from the collected cells, 50 uL of a lysis buffer (20 mM Tris, pH 7.4, 150 mM NaCl, 1% Triton-X-100, 2 mM NaF, 2 mM EDTA, 2 mM b-glycerophosphate, 5 mM sodium orthovanadate, 1 mM PMSF, leupeptin, aprotenin) was injected into each sample, and the cells were lysed. A sample buffer was added to each sample based on the measured total protein concentration, and the mixture was reacted at 100° C. for 5 minutes. After 5 uL was taken from the completely reacted sample and aliquoted into each well of an acrylamide gel, an immunoblotting method was performed, and the experimental results are illustrated in [FIG. 3]. […]

UBR5 = target: T2, UBR5 (Rattus norvegicus, UniProt Q62671); assay: UBR box domain binding strength by immunoprecipitation analysis, UBR5; assay type: cell-based; details: L6 cell line, compound 5 uM, 24 hours, immunoprecipitation and immunoblotting
T2 construct: endogenous in cells; host or cells: L6 rat muscle-derived cells
Procedure: (§1) To evaluate the binding strength of the compounds to UBR1, UBR2, UBR3 and UBR5 through the UBR box domain, a L6 cell line, which is a rat muscle-derived cell, was cultured using a DMEM medium containing 10% FBS and 1% streptomycin/penicillin in an incubator in which 5% carbon dioxide was maintained. In order to measure the UBR1 binding strength according to the treatment with a representative compound selected from the present compounds, cells were aliquoted into a 100 pi dish. The cells were additionally cultured for 24 hours so as to be completely attached to the surface of the plate. […] To extract proteins from the collected cells, 50 uL of a lysis buffer (20 mM Tris, pH 7.4, 150 mM NaCl, 1% Triton-X-100, 2 mM NaF, 2 mM EDTA, 2 mM b-glycerophosphate, 5 mM sodium orthovanadate, 1 mM PMSF, leupeptin, aprotenin) was injected into each sample, and the cells were lysed. Each sample was reacted with a UBR1 antibody for 16 hours based on the measured total protein concentration, and then reacted with Protein A/G beads for 3 hours. A sample buffer was added to the completely reacted sample and the resulting mixture was reacted at 100° C. for 5 minutes. After 20 uL was taken from the completely reacted sample and aliquoted into each well of an acrylamide gel, an immunoblotting method was performed, and the experimental results are illustrated in [FIG. 10] and [FIG. 11]. […]

UBR3 = target: T3, UBR3 (Rattus norvegicus, UniProt D4A7F0); assay: UBR box domain binding strength by immunoprecipitation analysis, UBR3; assay type: cell-based; details: L6 cell line, compound 5 uM, 24 hours, immunoprecipitation and immunoblotting
T3 construct: endogenous in cells; host or cells: L6 rat muscle-derived cells
T3 sequence (D4A7F0 1-1886): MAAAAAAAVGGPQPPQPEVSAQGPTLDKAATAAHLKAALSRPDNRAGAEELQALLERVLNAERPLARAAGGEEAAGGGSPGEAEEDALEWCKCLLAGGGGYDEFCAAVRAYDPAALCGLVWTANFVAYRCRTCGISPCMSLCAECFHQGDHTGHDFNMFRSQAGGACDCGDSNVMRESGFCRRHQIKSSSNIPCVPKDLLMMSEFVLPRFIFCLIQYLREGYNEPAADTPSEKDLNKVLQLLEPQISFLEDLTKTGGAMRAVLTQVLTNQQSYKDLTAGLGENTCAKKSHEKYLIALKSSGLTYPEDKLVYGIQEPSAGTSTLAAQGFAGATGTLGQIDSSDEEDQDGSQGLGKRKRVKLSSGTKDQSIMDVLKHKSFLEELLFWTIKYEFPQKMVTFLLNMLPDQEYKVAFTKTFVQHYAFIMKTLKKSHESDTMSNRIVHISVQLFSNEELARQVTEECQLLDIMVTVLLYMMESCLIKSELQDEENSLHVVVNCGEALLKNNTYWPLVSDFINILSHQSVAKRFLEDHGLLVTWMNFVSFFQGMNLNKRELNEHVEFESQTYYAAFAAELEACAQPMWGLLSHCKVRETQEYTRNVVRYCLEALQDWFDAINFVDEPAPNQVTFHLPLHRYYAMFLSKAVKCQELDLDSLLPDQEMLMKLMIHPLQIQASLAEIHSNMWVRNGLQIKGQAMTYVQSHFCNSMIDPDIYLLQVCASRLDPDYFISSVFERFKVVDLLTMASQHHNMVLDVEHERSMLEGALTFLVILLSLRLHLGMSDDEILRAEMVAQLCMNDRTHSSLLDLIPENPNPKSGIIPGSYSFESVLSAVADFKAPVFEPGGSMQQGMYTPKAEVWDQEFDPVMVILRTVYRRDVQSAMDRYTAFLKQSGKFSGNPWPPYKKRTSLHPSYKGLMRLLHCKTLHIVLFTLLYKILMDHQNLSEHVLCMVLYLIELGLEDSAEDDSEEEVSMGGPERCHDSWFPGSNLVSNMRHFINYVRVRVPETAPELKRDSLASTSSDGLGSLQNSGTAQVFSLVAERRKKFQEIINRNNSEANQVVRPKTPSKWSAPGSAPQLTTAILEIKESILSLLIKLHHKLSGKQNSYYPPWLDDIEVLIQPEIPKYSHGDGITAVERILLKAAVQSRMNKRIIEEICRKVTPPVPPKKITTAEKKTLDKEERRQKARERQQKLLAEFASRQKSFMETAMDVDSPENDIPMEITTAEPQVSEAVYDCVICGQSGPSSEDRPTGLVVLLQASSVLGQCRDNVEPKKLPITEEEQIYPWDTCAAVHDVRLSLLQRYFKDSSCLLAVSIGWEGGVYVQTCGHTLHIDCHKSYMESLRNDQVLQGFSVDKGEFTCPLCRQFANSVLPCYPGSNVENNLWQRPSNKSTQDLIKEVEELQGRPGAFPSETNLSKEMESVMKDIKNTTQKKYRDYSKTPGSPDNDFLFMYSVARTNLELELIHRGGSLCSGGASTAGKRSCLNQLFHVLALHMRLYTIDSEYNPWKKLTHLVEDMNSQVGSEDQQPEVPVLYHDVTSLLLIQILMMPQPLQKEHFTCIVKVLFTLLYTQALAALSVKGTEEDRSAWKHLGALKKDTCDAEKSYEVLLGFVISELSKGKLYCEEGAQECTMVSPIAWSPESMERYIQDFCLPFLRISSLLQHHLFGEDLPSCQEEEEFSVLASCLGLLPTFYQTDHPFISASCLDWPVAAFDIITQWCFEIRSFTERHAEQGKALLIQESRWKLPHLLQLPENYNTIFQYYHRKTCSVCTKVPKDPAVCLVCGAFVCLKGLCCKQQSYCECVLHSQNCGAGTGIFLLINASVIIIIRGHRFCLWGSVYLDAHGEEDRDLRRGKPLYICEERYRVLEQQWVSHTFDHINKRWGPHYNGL
Procedure: as §1

UBR2 = target: T4, UBR2 (Rattus norvegicus, UniProt A0A8I5YBG5); assay: UBR box domain binding strength by immunoprecipitation analysis, UBR2; assay type: cell-based; details: L6 cell line, compound 5 uM, 24 hours, immunoprecipitation and immunoblotting
T4 construct: endogenous in cells; host or cells: L6 rat muscle-derived cells
Procedure: as §1

UBR1 [3] = assay: Inhibition of R-nsP4 degradation by in vitro transcription/translation method; assay type: biochemical; details: compound 1 uM, 30° C. for 40 minutes, DHFR-Ub-R-nsP4 plasmid, immunoblotting
Procedure: A TnT® Quick Coupled Transcription/Translation System kit was used to confirm the R-nsP4 expression of the compounds. After a pre-mix was made using Transcend Biotin-Lysyl-tRNA, methionine, bestatin, a TnTquick Master mix and a DHFR-Ub-R-nsP4 plasmid, the pre-mix was mixed with a compound (1 uM). After each sample was reacted at 30° C. for 40 minutes, a 5×SDS loading dye was added thereto. After the resulting mixture was reacted at 95° C. for 2 minutes, 5 uL was taken and aliquoted into each well of an acrylamide gel, and then an immunoblotting method was performed, and the experimental results are illustrated in [FIG. 2]. For an in vitro transcription/translation method, a representative experiment was schematized from three or more independent experiments.
Referring to FIG. 2, it can be confirmed that the level of R-nsP4 is increased by Compound 2, Compound 3, Compound 7, Compound 12, Compound 14, and Compound 16 compared to the control. That is, it could be confirmed that in the case of treatment with the compound according to the present invention, the R-nsP4 level was increased by binding to UBR1.

UBR box of Human UBR1 = target: T5, UBR box of Human UBR1 (Homo sapiens, UniProt Q8IWV7); assay: UBR box domain binding by microscale thermophoresis (MST); details: RED-NHS labeled UBR1 UBR box protein (Gln97-Pro168), FIGS. 12 to 19
T5 construct: A Gln97-Pro168 portion corresponding to the UBR box of Human UBR1; made in house; host or cells: E. coli
T5 sequence (Q8IWV7 97-168): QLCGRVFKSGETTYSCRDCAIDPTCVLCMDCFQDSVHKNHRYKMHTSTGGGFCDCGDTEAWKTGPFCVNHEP
Procedure: A Gln97-Pro168 portion corresponding to the UBR box of Human UBR1 (UniProt ID: Q81WV7) was cloned into a modified expression vector, and then expressed in E. coli. After affinity chromatography was used, a tag was removed by a protease, and then Gly-His-Met was added to the N-terminal. After ion chromatography was performed, a final UBR box protein of a UBR1 was purified using gel filtration chromatography in a buffer composition of 10 mM NaCl, 20 mM Tris-HCl, 2 mM beta-mercaptoethanol, and pH 7.5.
A dye of the Monolith protein labeling kit RED-NHS 2nd generation (Cat #MO-L011) has an NHS-ester group that forms a covalent bond with primary amines (lysine residues). This dye is optimized for a Monolith-series device equipped with a RED detector. A purified UBR1 UBR box protein was labeled according to the presented protocol using this kit.
Thermophoresis refers to a phenomenon in which particles move due to a temperature gradient. Particles present in a high temperature region have greater kinetic energy than particles present in a low temperature region, and more frequently collide with surrounding particles with greater energy. As a result, particles move from the high temperature region to the low temperature region.
Thermophoresis of proteins is typically different from that of protein-ligand complexes. This is because the binding of the ligand changes its size, electric charge, and solvation energy. […] Therefore, the binding of the UBR1 UBR box protein and the ligand compound was measured using MST, and it was confirmed that the presented ligand binds to the UBR1 UBR box (see FIGS. 12 to 19).

UBR1 [4] = target: T1, UBR1; assay: UBR box domain binding strength by immunoprecipitation analysis, UBR1; assay type: cell-based; details: L6 cell line, 24 hours, immunoprecipitation and immunoblotting
Procedure: as §1

L6 cell line = assay: Confirmation of whether muscle actin is Arg/N-degron pathway substrate (immunoblotting); assay type: cell-based, rat; details: MG132 10 uM, 24 hours
Procedure: A L6 cell line, which is a rat muscle-derived cell, was cultured using a DMEM medium containing 10% FBS and 1% streptomycin/penicillin in an incubator in which 5% carbon dioxide was maintained, and cells were aliquoted into a 12-well plate after the culture. The cells were additionally cultured for 24 hours so as to be completely attached to the surface of the plate. To confirm whether MG132 increased UBR1 binding, cells were collected after treatment with MG132 (10 uM) alone for 24 hours. To extract proteins from the collected cells, 50 uL of a lysis buffer (20 mM Tris, pH 7.4, 150 mM NaCl, 1% Triton-X-100, 2 mM NaF, 2 mM EDTA, 2 mM b-glycerophosphate, 5 mM sodium orthovanadate, 1 mM PMSF, leupeptin, aprotenin) was injected into each sample, and the cells were lysed. A sample buffer was added to each sample based on the measured total protein concentration, and the mixture was reacted at 100° C. for 5 minutes. After 5 uL was taken from the completely reacted sample and aliquoted into each well of an acrylamide gel, an immunoblotting method was performed, and the experimental results are illustrated in [FIG. 1]. For the immunoblotting method, a representative experiment was schematized from three or more independent experiments.

Nc1ccc(S(=O)(=O)NNC(=O)c2ccc(O)cc2)cc1 [Compound 2, 4-amino-N′-(4-hydroxybenzoyl)benzenesulfonohydrazide]
level of ACTA1 compared to the control (UBR1 [1]): further increased | level of RGS4 compared to the control (UBR1 [2]): increased | binding strength of UBR5 and ACTA1 (UBR5): reduced | binding strength of UBR3 and ACTA1 (UBR3): reduced | binding strength of UBR2 and ACTA1 (UBR2): reduced | level of R-nsP4 compared to the control (UBR1 [3]): increased | binding to UBR1 UBR box (MST) (UBR box of Human UBR1): binds | binding strength of UBR1 and ACTA1 (UBR1 [4]; compound 5 uM): reduced

Nc1ccc(S(=O)(=O)NNC(=O)c2ccc(O)cc2)cc1N1CCOCC1 [Compound 3, 4-amino-N′-(4-hydroxybenzoyl)-3-morpholinobenzenesulfonohydrazide]
level of ACTA1 compared to the control (UBR1 [1]): further increased | level of RGS4 compared to the control (UBR1 [2]): increased | level of R-nsP4 compared to the control (UBR1 [3]): increased

Nc1ccc(S(=O)(=O)NNC(=O)c2cccc(-c3ccccc3)c2)cc1 [Compound 7, N′-([1,1′-biphenyl]-3-carbonyl)-4-aminobenzenesulfonohydrazide]
level of ACTA1 compared to the control (UBR1 [1]): further increased | level of R-nsP4 compared to the control (UBR1 [3]): increased

Nc1ccc(S(=O)(=O)NCC(=O)c2ccc(O)cc2)cc1 [Compound 12, 4-amino-N-(2-(4-hydroxyphenyl)-2-oxoethyl)benzenesulfonamide]
level of ACTG2 compared to the control (UBR1 [1]): further increased | level of R-nsP4 compared to the control (UBR1 [3]): increased | binding to UBR1 UBR box (MST) (UBR box of Human UBR1): binds

N=C(N)c1ccc(S(=O)(=O)NNC(=O)c2ccc(O)cc2)cc1 [Compound 14, 4-((2-(4-hydroxybenzoyl)hydrazinyl)sulfonyl)benzimidamide]
level of ACTG2 compared to the control (UBR1 [1]): further increased | level of R-nsP4 compared to the control (UBR1 [3]): increased

Nc1ccc(S(=O)(=O)CNC(=O)c2ccc(O)cc2)cc1 [Compound 16, N-(((4-aminophenyl)sulfonyl)methyl)-4-hydroxybenzamide]
level of ACTA1 compared to the control (UBR1 [1]): further increased | level of R-nsP4 compared to the control (UBR1 [3]): increased

CC(C)C[C@@H](C=O)NC(=O)[C@H](CC(C)C)NC(=O)[C@H](CC(C)C)NC(=O)OCc1ccccc1 [MG132] (Cbz-Leu-Leu-Leu-aldehyde)
level of ACTA1 compared to a control (L6 cell line): increased | level of ACTC1 compared to a control (L6 cell line): increased | level of ACTG2 compared to a control (L6 cell line): increased | binding strength between UBR1 and a substrate ACTA1 (UBR1 [4]; MG132 10 uM as negative control): maintained
